Read-outs that look alike come from different tables or passages of the source.
How the values were obtained:
[1] = system: Rh. Oryzae; assay: Sensitivity of microscopic fungi in solution (colonies after exposure); format: cell-based
Experimental: For the preparation of inoculum, were respectively used pure (2-5) days cultures of yeast and mycelial fungi, grown on Saburo's dense nutrient broth. Inoculum for plating was prepared in different ways, depending on the type of fungi. Thus, yeast crops (C. albicans) were prepared by washing the culture from an agar stroke. Cultures of mycelial fungi (Rh. oryzae, Asp. fumigatus) were pre-degraded in a pounder. A suspension of microorganisms was prepared in a sterile isotonic sodium chloride solution, bringing the inoculum density to 5 UNITS (GISK [State Research Institute of Standardization and Control] named after L. A. Tarasevich) or according to the McFarland standard 1 UNIT with a concentration of at least 1×10^6 CFU/ml, considering that the size of the fungal elements is approximately 10 times the size of bacteria (this provided the possibility of creating a mixture of biocide with suspension, the concentration of microorganisms of the order of 1×10^5 CFU/ml).
Solutions of compound I, miramistin, and benzalkonium chloride in working concentrations (0.1%, 0.2%, 0.3%) were poured into sterile 0.9 ml tubes. 0.1 ml of microbial suspension was added to test tubes with disinfectant solutions and mixed by shaking for several seconds. The exposition lasted for 1, 5, and 15 minutes. After required temporary exposure for action of the disinfectant, 0.5 ml of the neutralizer solution was added and mixed by shaking.
Then, 0.1 ml of the mixture was inoculated on a dense nutrient medium and the plates with inoculate were placed in a thermostat with a temperature of 27° C. for (2-4) days for yeast and (5-7) days for mycelial fungi, respectively.
After the time required for the cultivation of microorganisms of this species, the results were counted according to the number of colonies grown on the Petri dish. In the absence of growth, the time for culturing microorganisms was increased by a factor of 2. The grown colonies were subjected to microscopy.
The tested substances were studied on clinical and archival strains of yeast and mycelial fungi. As comparison drugs, drugs commonly used in clinical practice were used: miramistin and benzalconium chloride. After the required exposure time for action of the disinfectant, a series of 0.1 ml mixture was aseptically plated on the surface of a dense nutrient medium in Petri dishes. After the time of cultivation of microorganisms, the results were counted according to the number of colonies grown on the Petri dish.

[2] = system: Stylonychia mytilus; assay: Antiprotozoal activity by death of protozoa; format: cell-based; conditions: for IC50: read-out: IC50 (95% confidence interval)
Experimental: Evaluation of the antiprotozoal activity of compound I was determined by the viability of the protozoa genus of hypotrichs Stylonychia mytilus in a nutrient medium in the presence of the studied substances. A mother liquor of compound I (10 mg/ml) was prepared in a mixture of DMSO and 96% ethanol (1:1). A 1% aqueous solution of DMSO and ethyl alcohol served as a negative control, and miramistin, benzalkonium chloride, and chlorhexidine were used as reference preparations. Then, from the mother liquors by repeated dilutions with water, working solutions were prepared corresponding to doses of 5; 10; 20; 25; 50; 75; 100 and 150 μg/ml. 10 μl of culture medium with protozoa and 10 μl of a solution of the test substance were applied to a chamber slide. The experiment was done in five replicates.
Slides were examined under a light microscope, antiprotozoal activity of substances (MIC and IC50) were determined by the death of protozoa. The Hill regression model with 5 parameters was used for the analysis.

[3] = system: gram-negative bacteria; assay: MIC screening, summary for gram-negative bacteria; format: cell-based
Experimental: A comparative assessment of the spectrum of antibacterial action was carried out on archival and clinical strains of gram-positive and gram-negative microorganisms in accordance with the [Opredeleniye chuvstvitel'nosti mikroorganizmov k antibakterial'nym preparatam (Metodicheskiye ukazaniya MUK 4.2.1890-04). Utverzhdeny i vvedeny v deystviye Glavnym gosudarstvennym sanitarnym vrachom Rossiyskoy Federatsii G. G. Onishchenko 04.03.2004 g. Determination of the sensitivity of microorganisms to antibacterial drugs (Guidelines MUK 4.2.1890-04). Approved and put into effect by the Chief State Sanitary Doctor of the Russian Federation G. G. Onishchenko on 4 Mar. 2004].
The value of the minimum inhibitory concentration (MIC) was determined by the method of serial dilutions on Müller-Hinton broth using 96-well sterile plates. Two-fold dilutions of the test substances in a nutrient medium were prepared. The final concentrations were 1-128 ug/ml. The growth of cultures was assessed visually, comparing the growth of microorganisms in the presence of test compounds with the growth of culture without them. […] The first lowest concentration of the studied substance (from a series of consecutive dilutions), where bacterial growth is not visually determined, is considered to be the minimum inhibitory concentration (MIC). MIC was determined by the method of serial dilutions in broth with increment=2, so the differences of neighboring dilutions are not considered to be significant. In each experience there is a positive (broth with growing culture) and a negative (broth without growing culture) control.
To determine the MIC, 10 μl of culture medium was taken from those wells in which growth was not observed, and inoculation was performed on a dense Müller-Hinton broth. For the preparation of the inoculum, a pure, daily culture of gram-positive and gram-negative microorganisms grown on a dense nutrient medium was used. Nutrient medium is Müller-Hinton broth, which was prepared from dry media (Müller-Hinton broth, Acumedia, Baltimore), cultivation was carried out on agarized Müller-Hinton broth, including an additional 2% agar. The media were autoclaved at 121° C. for 15 minutes. […] The inoculum was used within 15 minutes after preparation; the purity of the bacterial strains was monitored before each experiment.
100 μl of Müller-Hinton broth was added to the wells of each plate; The tested substance was introduced into the first well at a concentration of 128 μg/ml in a volume of 100 μl and its concentration was adjusted to 0.5 μg/ml by consecutive two-fold dilution. […] In addition, the purity of nutrient media and solvents was monitored. […] The growth of cultures was assessed visually, comparing the growth of microorganisms in the presence of test compounds with the growth of culture without them. […]

[4] = system: mice; conditions: intragastric administration on mice; literature and safety data sheets; cited from earlier work
[5] = death of protozoa, Hill regression

| Compound | Number of colonies grown in a Petri dish ([1]; exposure 1 min, 0.1% solution) | Number of colonies grown in a Petri dish ([1]; exposure 1 min, 0.2% solution) | Number of colonies grown in a Petri dish ([1]; exposure 1 min, 0.3% solution) | Number of colonies grown in a Petri dish ([1]; exposure 5 min, 0.1% solution) | Number of colonies grown in a Petri dish ([1]; exposure 5 min, 0.2% solution) | Number of colonies grown in a Petri dish ([1]; exposure 15 min, 0.1% solution) | MIC [2] [µg/mL] | IC50 [2] [µg/mL] | MIC ([3]; Escherichia coli, ATCC25922, range, with the exception for the archival strain E. coli ATCC 25922) [µg/mL] | LD50 [4] [mg/kg] | MIC ([2]; death of protozoa) [µg/mL] | IC50 (95% confidence interval) [2, 5] | IC50 [2, 5] [µg/mL] | MIC ([2]; death of protozoa, read-out: MIC) [µg/mL] | MIC ([3]; in 11 strains) [µg/mL] | MIC ([3]; in 12 strains) [µg/mL] | MIC ([3]; in 18 strains) [µg/mL] |
| --- | --- | --- | --- | --- | --- | --- | --- | --- | --- | --- | --- | --- | --- | --- | --- | --- | --- |
| CCCCCCCCCCCCCC(=O)NCCC[N+](C)(C)Cc1ccccc1.O.[Cl-] [Miramistin, benzyldimethyl [3-(myristoylamino)propyl]-ammonium chloride monohydrate] | 12 | 2 | 1 | 10 | 4 | 2 | 50 | 92 | 32 to 64 | 1000 | – | – | – | – | – | – | – |
| alkyldimethyl(phenylmethyl) ammonium chloride [Benzalconium chloride] | 1 | – | – | – | – | – | – | – | – | 150 | 30 | 67 (66-69) μg/ml | – | – | – | – | – |
| CCCCCCCCCCCC[N+](C)(C)Cc1cnc(C[N+](C)(C)CCCCCCCCCCCC)c2c1COC(CC)O2 (centres unmarked) [Compound I, 5,8-(Bis(methylene (N, N-dimethyl-N-dodecylammonium))-2-ethyl-4H-[1,3]dioxino [4,5-c]pyridiniumdichloride] | 1 | – | – | – | – | – | – | – | – | – | – | – | 59 | 25 | 2 to 4 | 32 to 64 | 8 to 16 |

From US11014934B2, “Antiseptic drug” (AO “TATKHIMFARMPREPARATY”, priority 2017, dated 2021)
